Usually IC50 stands for the concentration needed to halve the response being measured. Read a high IC50 as a need for much substance.

The structures appear in SMILES notation.

Assay [1] in a line: Activity against TXA2 synthase in bovine platelet microsome.
The target of assay [2] is Thromboxane-A synthase (Bos taurus). Described as above.

Consider `O=C(O)c1ccc2c(c1)C(SCc1cccnc1)c1ccccc1CO2` (stereo not drawn) [11-(Pyridin-3-ylmethylsulfanyl)-6,11-dihydro-dibenzo[b,e]oxepine-2-carboxylic acid], for which the IC50 in assay [1] was found to be 400 nM; in assay [2], 4 nM.
`C/C(=C\c1ccc(Cc2cccnc2)cc1)C(=O)O` [Sodium; (E)-2-methyl-3-(4-pyridin-3-ylmethyl-phenyl)-acrylate] registered an IC50 in assay [2] of 4.3 nM.
